Reference: patent publication US10253071B2, “Selectin inhibitors, composition, and uses related thereto” (Beth Israel Deaconess Medical Center, Inc., priority 2014, dated 2019)
Square brackets hold non-standard residues; d marks the D form. Peptide text beside a SMILES is read from it. * marks the point of attachment. X1 = CC(=O)N[C@@H]1[C@@H](O[C@@H]2O[C@H](CO)[C@H](O)[C@H](O)[C@H]2O)[C@@H](O)[C@@H](CO[C@@H]2O[C@H](CO)[C@@H](O[C@@H]3O[C@H](CO)[C@H](O)[C@H](O[C@]4(C(=O)O)C[C@H](O)[C@@H](NC(C)=O)[C@H]([C@H](O)[C@H](O)CO)O4)[C@H]3O)[C@H](O[C@@H]3O[C@@H](C)[C@@H](O)[C@@H](O)[C@@H]3O)[C@H]2NC(C)=O)O[C@@H]1*; Phe(4-CH2SO3H) = N[C@@H](Cc1ccc(CS(=O)(=O)O)cc1)C(=O)O; Mca = COc1ccc2c(CC(=O)*)cc(=O)oc2c1

Tests used:
[1] = biological target: T1, Recombinant mouse P-selectin Fc chimera (Mus musculus, UniProt Q01102); test: Flow cytometry, inhibition of mouse P-selectin Fc chimera binding to murine neutrophils; format: cell-based; settings: murine PMN; chimera 2 μg/mL; read-out: IC50, P-selectin dependent interactions, murine PMN
T1 sequence (Q01102 42-768): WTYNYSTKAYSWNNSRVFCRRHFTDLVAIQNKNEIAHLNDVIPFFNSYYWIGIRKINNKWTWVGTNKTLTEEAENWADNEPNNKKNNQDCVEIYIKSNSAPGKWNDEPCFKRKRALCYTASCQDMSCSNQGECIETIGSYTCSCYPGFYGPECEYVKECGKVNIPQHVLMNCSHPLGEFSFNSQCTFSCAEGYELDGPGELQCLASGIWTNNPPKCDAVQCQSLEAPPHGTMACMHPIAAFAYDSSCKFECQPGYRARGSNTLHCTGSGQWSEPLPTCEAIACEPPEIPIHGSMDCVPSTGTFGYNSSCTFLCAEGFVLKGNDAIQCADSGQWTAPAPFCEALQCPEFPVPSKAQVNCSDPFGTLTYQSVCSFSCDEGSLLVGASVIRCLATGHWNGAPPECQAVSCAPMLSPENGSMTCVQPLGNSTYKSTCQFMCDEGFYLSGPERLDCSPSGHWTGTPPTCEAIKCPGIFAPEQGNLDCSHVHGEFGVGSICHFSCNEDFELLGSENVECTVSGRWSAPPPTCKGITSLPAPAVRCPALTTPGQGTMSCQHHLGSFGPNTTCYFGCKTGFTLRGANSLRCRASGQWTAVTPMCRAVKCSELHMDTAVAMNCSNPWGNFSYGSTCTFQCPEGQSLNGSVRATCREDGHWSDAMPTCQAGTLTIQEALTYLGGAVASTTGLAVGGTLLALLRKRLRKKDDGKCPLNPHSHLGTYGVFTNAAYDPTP
Experimental: Flow cytometry was used to characterize the ability of GSnP-6 to block binding of selectin-IgG chimeras to murine and human leukocytes. Recombinant mouse P- or L-selectin Fc chimera (2 μg/mL) was incubated with murine neutrophils and GSnP-6 (0-30 μM). Likewise, recombinant human P-selectin or L-selectin Fc chimera were incubated with human peripheral blood neutrophils and monocytes, as well as the human U937 cell line in the presence of GSnP-6 (0-30 μM). Binding of selectin-IgG chimeras was detected with PE-conjugated anti-IgG antibody, quantified as mean fluorescent intensity, and plotted as percent inhibition. Specificity was confirmed with selectin-specific blocking antibodies.

[2] = tested on: P-selectin (recombinant Ig chimera); test: Microarray binding screen of glycopeptide mimics, P-selectin; design: species or system human and mouse; settings: selectin Ig chimeras 5-20 μg/mL, Alexa-488 anti-human IgG
Experimental: (§1) Bound peptides were detected using Alexa-488 labeled anti-human IgG antibody (5 μg/mL). Three lectins RCA-1, AAL, and PNA were used to confirm the sequence of enzymatic steps. Monoclonal antibodies CHO131, PSG2 antibody and PL-1 were used to confirm the presence of SLex, tyrosine sulfates, and the peptide sequence, respectively. Biacore binding analysis to human P-selectin with observed rate constants for (D) GSnP-6, kon 3.1×10^5 M^−1s^−1, koff 6.9×10^3 M^−1s^−; GSn2P-6, kon6.4×10^5 M^−1s^−1, koff 6.8×10^3 M^−1s. Biacore binding analysis to mouse P-selectin with observed rate constants for (E) GsnP-6, kon 4.9×10^4 M^−1s^−1, koff 8.0×10^3 M^−1s^−; GSn2P-6 kon 5.3×10^4 M^−1s^−1, koff 9.0×10^3 M^−1s. (F) Temperature- and pH-dependent stability studies of GSnP-6.
Binding affinities of PSGL-1 mimics towards selectins was initially screened using a microarray in which glycosulfopeptides and glycan standards (Sialyl Le^x, NA2, NA2,3, NA2,6 and LNnT) were printed on a NHS-activated glass slide. The slide was then incubated with recombinant Ig chimeras of P-, L-, or E-selectin (5-20 μg/mL) followed by Alexa-488 labeled anti-human IgG antibody (5 μg/mL). […] Binding of glycopeptides mimics to selectins was […] dependent and inhibited by EDTA.

[3] = tested on: leukocyte binding to microvascular endothelium; test: Intravital microscopy of murine cremaster muscle microcirculation, leukocyte rolling; format: in vivo; settings: mouse cremaster venules 30 to 40 μm, 4 μmol/kg IV, saline 40.8±1.7, p≤0.01
Experimental: Intravital microscopy was used to determine the ability of GsnP-6 to inhibit leukocyte binding to microvascular endothelium. PSGL-1 expressed on circulating leukocytes binds to selectins on endothelium; inducing leukocyte rolling to facilitate subsequent tight binding to integrin receptors. Inhibition of this interaction leads to an increase in rolling velocity. Intravital microscopy of the murine cremaster muscle microcirculation was performed on venules with a diameter of 30 to 40 μm. Seven venules per mouse (n=4, saline (control); n=3, GSnP-6, 4 μmol/kg IV) were analyzed and the velocities of 5 to 10 rolling leukocytes were determined in each venule by individually tracking leukocyte distance/time (μm/s). A significant increase in mean rolling velocity was observed after intravenous administration of GSnP-6 (FIG. GsnP-6: 74.9±3.4 μm/s, saline: 40.8±1.7 μm/s; p≤0.01).

[4] = Chemical stability at low pH and at high temperature (RP-HPLC); format: physicochemical; settings: sodium acetate/acetic acid buffer pH 5, 37° C.; and 2 mM phosphate buffer pH 7.5, 60° C.
Experimental: as §1
The chemical stability of GSnP-6 was evaluated under low pH conditions by incubating the compound in sodium acetate/acetic acid buffer at pH 5, 37° C., as well as under high temperature conditions by incubation in 2 mM phosphate buffer at pH 7.5, 60° C. (FIG. 3E).

COc1ccc2c(CC(=O)NCCCC[C@H](N)C(=O)N[C@@H](CCC(=O)O)C(=O)N[C@@H](Cc3ccc(CS(=O)(=O)O)cc3)C(=O)N[C@@H](CCC(=O)O)C(=O)N[C@@H](Cc3ccc(CS(=O)(=O)O)cc3)C(=O)N[C@@H](CC(C)C)C(=O)N[C@@H](CC(=O)O)C(=O)N[C@@H](Cc3ccc(CS(=O)(=O)O)cc3)C(=O)N[C@@H](CC(=O)O)C(=O)N[C@@H](Cc3ccccc3)C(=O)N[C@@H](CC(C)C)C(=O)N3CCC[C@H]3C(=O)N[C@@H](CCC(=O)O)C(=O)N[C@H](C(=O)N[C@@H](CCC(=O)O)C(=O)N3CCC[C@H]3C(=O)N[C@@H](CC(C)C)C(=O)O)[C@@H](C)O[C@H]3O[C@H](CO[C@@H]4O[C@H](CO)[C@@H](O[C@@H]5O[C@H](CO)[C@H](O)[C@H](O[C@]6(C(=O)O)C[C@H](O)[C@@H](NC(C)=O)[C@H]([C@H](O)[C@H](O)CO)O6)[C@H]5O)[C@H](O[C@@H]5O[C@@H](C)[C@@H](O)[C@@H](O)[C@@H]5O)[C@H]4NC(C)=O)[C@H](O)[C@H](O[C@@H]4O[C@H](CO)[C@H](O)[C@H](O)[C@H]4O)[C@H]3NC(C)=O)cc(=O)oc2c1 [GSnP-6] (H-K(Mca)E[Phe(4-CH2SO3H)]E[Phe(4-CH2SO3H)]LD[Phe(4-CH2SO3H)]DFLPET(X1)EPL-OH)
IC50 [1]: ~15 µM
binding to P-selectin compared with E- or L-selectin [2]: bound to P-selectin more strongly than to E- or L-selectin
mean leukocyte rolling velocity [3]: increased leukocyte rolling velocity
mean leukocyte rolling velocity ([3]; listed as GsnP-6): 74.9±3.4 μm/s
chemical stability (degraded products by RP-HPLC) [4]: degraded products were not detected
